Data published in BindingDB's records for patent US20240116948 (Chiesi Farmaceutici, 2024).

Molecular target: T1, TGF-beta receptor type-1 (Homo sapiens, UniProt P36897)
T1 sequence (P36897 whole entry): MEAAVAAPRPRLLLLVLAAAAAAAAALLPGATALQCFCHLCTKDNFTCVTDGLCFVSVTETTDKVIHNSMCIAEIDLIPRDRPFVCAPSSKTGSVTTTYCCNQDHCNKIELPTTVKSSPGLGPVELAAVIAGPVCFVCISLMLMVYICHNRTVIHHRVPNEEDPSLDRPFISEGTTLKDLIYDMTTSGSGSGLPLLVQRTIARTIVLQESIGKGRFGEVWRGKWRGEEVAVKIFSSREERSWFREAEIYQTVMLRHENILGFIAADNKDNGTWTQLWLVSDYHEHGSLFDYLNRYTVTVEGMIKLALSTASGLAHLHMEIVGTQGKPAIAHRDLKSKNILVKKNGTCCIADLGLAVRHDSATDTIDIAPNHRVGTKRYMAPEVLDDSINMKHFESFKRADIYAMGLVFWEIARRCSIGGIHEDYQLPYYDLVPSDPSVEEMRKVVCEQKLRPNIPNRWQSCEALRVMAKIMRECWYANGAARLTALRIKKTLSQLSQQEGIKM
Experiment: In Vitro Assay
Protocol: The enzymatic activity of compounds of the present invention was monitored measuring the formation of ADP using the ADP-GLO Kinases assay. Following the incubation of the purified enzyme, a substrate and ATP, the produced ADP was converted into ATP, which in turn was converted into light by Ultra-Glo Luciferase. The luminescent signal positively correlated with ADP amount and kinase activity. Briefly, the kinase reaction was performed by incubating 2.6 nM of the purified, commercially available human ALK5 (recombinant TGF 31 N-term GST-tagged, 80-end), a final concentration of TGFβ1 peptide 94.5 μM (Promega, T36-58) and ultra-pure ATP (Promega V915B). The ATP concentration was set at the Km value (concentration of substrate which permits the enzyme to achieve half maximal velocity (Vmax)) of ALK5 (5 μM). All reactions/incubations were performed at 25° C. Compound and ALK5 kinase were mixed and incubated for 15 mins. Reactions were initiated by addition of ATP at a final concentration in the assay of […]. After an incubation of 150 min, the reaction was stopped, and ADP production detected with ADP-Glo kit according to manufacturer's indications. The assay was performed in 384-well format and was validated using a selection of reference compounds that was tested in 11 point concentration-response curve.

IC50, < 1 nM:
CN(CCO)CCC(=O)Nc1cncc(-c2cc(-c3cc(Cl)ccc3F)nc3c2OCCN3)c1 [US20240116948, Example 44]
CN(C)CCCOc1cncc(-c2cc(-c3cc(Cl)ccc3F)nc3c2OCCN3)c1 [US20240116948, Example 27]
CN(C)CCC(=O)Nc1cncc(-c2cc(-c3cc(Cl)ccc3F)nc3c2OCCN3)c1 [US20240116948, Example 8]
O=C(CCN1CCCC1)Nc1cncc(-c2cc(-c3cc(Cl)ccc3F)nc3c2OCCN3)c1 [US20240116948, Example 12]
CN1CCC(Oc2cncc(-c3cc(-c4cc(Cl)ccc4F)nc4c3OCCN4)c2)CC1 [US20240116948, Example 41]
CNCCCC(=O)Nc1cncc(-c2cc(-c3cc(Cl)ccc3F)nc3c2OCCN3)c1 [US20240116948, Example 31]
